US20120115845A1, “THERAPEUTIC AGENTS” (priority 2007, published 2012)

Legend:
human GHS receptor [1] = target: T1, human GHS receptor (Homo sapiens, UniProt Q92847); assay: h bind IC50 (binding assay, Table 1); details: human receptor; Table 1
human GHS receptor [2] = target: T1, human GHS receptor; assay: Ghrelin IP1 agonist assay (IP1 HTRF); assay type: cell-based; design: expressed in transfected cells; host or cells: HEK293s; details: for Emax: 2 h, agonist effect as % maximal effect of GHRP-6 (5 μM), read-out: h IP1 ag %; for EC50: HEK293s cells stably expressing human GHS receptor, 2 hours at 37° C., read-out: h IP1 ag EC50
Summary of the method: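 Cells: HEK293s stably expressing human GHS receptor, in stimulation buffer containing 0.02% fatty acid free BSA.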

T1 sequence (Q92847 whole entry): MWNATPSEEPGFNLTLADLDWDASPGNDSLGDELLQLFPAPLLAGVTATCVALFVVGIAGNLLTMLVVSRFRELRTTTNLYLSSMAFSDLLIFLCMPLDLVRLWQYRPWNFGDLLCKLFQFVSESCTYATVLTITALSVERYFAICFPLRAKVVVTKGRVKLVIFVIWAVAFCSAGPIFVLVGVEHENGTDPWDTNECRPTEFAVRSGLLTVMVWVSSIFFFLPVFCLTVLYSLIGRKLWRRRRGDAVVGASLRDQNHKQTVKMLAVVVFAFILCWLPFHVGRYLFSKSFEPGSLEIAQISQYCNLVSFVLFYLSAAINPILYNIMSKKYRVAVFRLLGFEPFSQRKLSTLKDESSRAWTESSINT

Compound	IC50 (human GHS receptor [1])	Emax (human GHS receptor [2])	EC50 (human GHS receptor [2])
O=C(NC(=O)c1ccccc1Cl)Nc1nc2ccc(S(=O)(=O)CCNCC3CC3)cc2s1 [Example 34, 2-Chloro-N-[[6-[2-(cyclopropylmethylamino)ethylsulfonyl]benzothiazol-2-yl]carbamoyl]benzamide]	99.3 nM	46.7%	11.1 nM
CC1CCC(C)N1CCS(=O)(=O)c1ccc2nc(NC(=O)NC(=O)c3ccccc3Cl)sc2c1 (stereo not drawn) [Example 18, 2-Chloro-N-[[6-[2-(2,5-dimethylpyrrolidin-1-yl)ethylsulfonyl]benzothiazol-2-yl]carbamoyl]benzamide]	252 nM	47%	53.6 nM
CS(=O)(=O)c1ccc2nc(NC(=O)NC(=O)c3cc(Cl)ccc3Cl)sc2c1 [Example 64, 2,5-Dichloro-N-[(6-methylsulfonylbenzothiazol-2-yl)carbamoyl]benzamide]	139 nM	8.74%	19 nM
O=C(NC(=O)c1ccccc1Cl)Nc1nc2ccc(S(=O)(=O)CCCN3CCOCC3)cc2s1 [Example 146, 2-Chloro-N-[[6-(3-morpholin-4-ylpropylsulfonyl)benzothiazol-2-yl]carbamoyl]benzamide]	269 nM	40.7%	30 nM
O=C(NC(=O)c1ccccc1Cl)Nc1nc2ccc(S(=O)(=O)CCN3CCC(F)(F)C3)cc2s1 [Example 21, 2-Chloro-N-[[6-[2-(3,3-difluoropyrrolidin-1-yl)ethylsulfonyl]benzothiazol-2-yl]carbamoyl]benzamide]	1680 nM	16.9%	221 nM
O=C(NC(=O)c1ccccc1Cl)Nc1nc2ccc(S(=O)(=O)C3CCCNC3)cc2s1 (stereo not drawn) [Example 139, 2-Chloro-N-[[6-(3-piperidylsulfonyl)benzothiazol-2-yl]carbamoyl]benzamide]	107 nM	46.7%	27.3 nM
CS(=O)(=O)c1ccc2nc(NC(=O)NC(=O)c3ccccc3C(F)(F)F)sc2c1 [Example 170, N-[(6-Methylsulfonylbenzothiazol-2-yl)carbamoyl]-2-(trifluoromethyl)benzamide]	831 nM	9.73%	75.7 nM
CC(C)N1CCC[C@@H]1CS(=O)(=O)c1ccc2nc(NC(=O)NC(=O)c3ccccc3Cl)sc2c1 [Example 168, 2-Chloro-N-[[6-[[(2R)-1-propan-2-ylpyrrolidin-2-yl]methylsulfonyl]benzothiazol-2-yl]carbamoyl]benzamide]	20.6 nM	37%	4.13 nM
O=C(NC(=O)c1ccccc1Cl)Nc1nc2ccc(S(=O)(=O)NCCO)cc2s1 [Example 231, 2-chloro-N-[[6-(2-hydroxyethyl-sulfamoyl)-1,3-benzothiazol-2-yl]carbamoyl] benzamide]	67.3 nM	15.7%	72.1 nM
CS(=O)(=O)c1ccc2nc(NC(=O)NC(=O)c3ccc([N+](=O)[O-])cc3Cl)sc2c1 [Example 180, 2-Chloro-N-[(6-methylsulfonylbenzothiazol-2-yl)carbamoyl]-4-nitro-benzamide]	127 nM	5.93%	67.3 nM
CN1CC(Oc2ccc(Cl)c(C(=O)NC(=O)Nc3nc4ccc(S(C)(=O)=O)cc4s3)c2)C1 [Example 257, 2-chloro-5-(1-methylazetidin-3-yloxy)-N-(6-(methylsulfonyl)benzo[d]thiazol-2-ylcarbamoyl) benzamide]	846 nM	13.1%	≥ 20000 nM
CN1CCCC(S(=O)(=O)c2ccc3nc(NC(=O)NC(=O)c4ccccc4Cl)sc3c2)C1 (stereo not drawn) [Example 166, 2-Chloro-N-[[6-[(1-methyl-3-piperidyl)sulfonyl]benzothiazol-2-yl]carbamoyl]benzamide]	280 nM	53.9%	46.4 nM
CN(C)CCOCCS(=O)(=O)c1ccc2nc(NC(=O)NC(=O)c3ccccc3Cl)sc2c1 [Example 43, 2-Chloro-N-[[6-[2-(2-dimethylaminoethoxy)ethylsulfonyl]benzothiazol-2-yl]carbamoyl]benzamide]	51.7 nM	46%	42.2 nM
O=C(NC(=O)c1ccccc1Cl)Nc1nc2ccc(S(=O)(=O)CCO)cc2s1 [Example 41, 2-Chloro-N-[[6-(2-hydroxyethylsulfonyl)benzothiazol-2-yl]carbamoyl]benzamide]	535 nM	18.1%	95.8 nM
O=C(NC(=O)c1ccccc1Cl)Nc1nc2ccc(S(=O)(=O)CCNC3CCC3)cc2s1 [Example 25, 2-Chloro-N-[[6-[2-(cyclobutylamino)ethylsulfonyl]benzothiazol-2-yl]carbamoyl]benzamide]	189 nM	34.7%	13.8 nM
O=C(NC(=O)c1ccccc1Cl)Nc1nc2ccc(S(=O)(=O)CCNC3CCCC3)cc2s1 [Example 17, 2-Chloro-N-[[6-[2-(cyclopentylamino)ethylsulfonyl]benzothiazol-2-yl]carbamoyl]benzamide]	80.4 nM	42.1%	6.03 nM
CS(=O)(=O)c1ccc2nc(NC(=O)NC(=O)c3ccc(N4CCOCC4)cc3Cl)sc2c1 [Example 115, 2-Chloro-N-[(6-methylsulfonylbenzothiazol-2-yl)carbamoyl]-4-morpholin-4-yl-benzamide]	63.4 nM	9.95%	2030 nM
Cc1ccc(C)n1-c1ccc(C(=O)NC(=O)Nc2nc3ccc(S(C)(=O)=O)cc3s2)c(Cl)c1 [Example 119, 2-Chloro-4-(2,5-dimethylpyrrol-1-yl)-N-[(6-methylsulfonylbenzothiazol-2-yl)carbamoyl]benzamide]	24.3 nM	9.26%	15700 nM
CCN1CCC(S(=O)(=O)c2ccc3nc(NC(=O)NC(=O)c4ccccc4Cl)sc3c2)CC1 [Example 173, 2-Chloro-N-[[6-[(1-ethyl-4-piperidyl)sulfonyl]benzothiazol-2-yl]carbamoyl]benzamide]	76.2 nM	52.2%	8.43 nM
CCN1CCCC(S(=O)(=O)c2ccc3nc(NC(=O)NC(=O)c4ccccc4Cl)sc3c2)C1 (stereo not drawn) [Example 142, 2-Chloro-N-[[6-[(1-ethyl-3-piperidyl)sulfonyl]benzothiazol-2-yl]carbamoyl]benzamide]	851 nM	24.5%	35.1 nM

Now those with a lower IC50 (human GHS receptor [1]), led by results:

IC50 (human GHS receptor [1])	Emax (human GHS receptor [2])	EC50 (human GHS receptor [2])	Compound
2.8 nM	21.4%	4.01 nM	C#Cc1ccc(Cl)c(C(=O)NC(=O)Nc2nc3ccc(S(=O)(=O)CCCN4CCN(C)CC4)cc3s2)c1 [Example 220, 2-Chloro-5-ethynyl-N-[[6-[3-(4-methylpiperazin-1-yl)propylsulfonyl]benzothiazol-2-yl]carbamoyl]benzamide]
6.52 nM	0%	≥ 20000 nM	CC(C)(CN1CCCC1)S(=O)(=O)c1ccc2nc(NC(=O)NC(=O)c3cc(N4CCOCC4)ccc3Cl)sc2c1 [Example 245, 2-chloro-N-(6-(2-methyl-1-(pyrrolidin-1-yl)propan-2-ylsulfonyl)benzo[d]thiazol-2-ylcarbamoyl)-5-morpholino-benzamide]
0.4 nM	55.8%	2.02 nM	CCN1CCN(CCCS(=O)(=O)c2ccc3nc(NC(=O)NC(=O)c4ccccc4Cl)sc3c2)CC1 [Example 197, 2-Chloro-N-[[6-[3-(4-ethylpiperazin-1-yl)propylsulfonyl]benzothiazol-2-yl]carbamoyl]benzamide]
1.3 nM	0%	≥ 25000 nM	CC(C)NCCS(=O)(=O)c1ccc2nc(NC(=O)NC(=O)c3cc(-n4cccc4)ccc3Br)sc2c1 [Example 83, 2-Bromo-N-(6-(2-(isopropylamino)ethylsulfonyl)benzothiazol-2-ylcarbamoyl)-5-(1H-pyrrol-1-yl)benzamide]
0.93 nM	0%	≥ 20000 nM	CCOc1cc(Cl)c(C(=O)NC(=O)Nc2nc3ccc(S(=O)(=O)C4CCN(C)CC4)cc3s2)cc1-n1cccn1 [Example 261, 2-chloro-4-ethoxy-N-(6-(1-methylpiperidin-4-ylsulfonyl)benzo [d]thiazol-2-ylcarbamoyl)-5-(1H-pyrazol-1-yl)benzamide]
1.3 nM	2.25%	≥ 25000 nM	O=C(NC(=O)c1cc(-n2cccc2)ccc1Cl)Nc1nc2ccc(S(=O)(=O)CCCN3CCNCC3)cc2s1 [Example 73, 2-Chloro-N-[[6-(3-piperazin-1-ylpropylsulfonyl)benzothiazol-2-yl]carbamoyl]-5-pyrrol-1-yl-benzamide]
3.7 nM	0%	≥ 25000 nM	CS(=O)(=O)c1ccc2nc(NC(=O)NC(=O)c3cc(C4CCCC4)ccc3Cl)sc2c1 [Example 52, 2-Chloro-5-cyclopentyl-N-(6-(methylsulfonyl)benzothiazol-2-ylcarbamoyl)benzamide]
0.7 nM	4.42%	≥ 25000 nM	CN1CCN(CCCS(=O)(=O)c2ccc3nc(NC(=O)NC(=O)c4cc(-n5cccn5)ccc4Cl)sc3c2)CC1 [Example 88, 2-Chloro-N-(6-(3-(4-methylpiperazin-1-yl)propylsulfonyl)benzothiazol-2-ylcarbamoyl)-5-(1H-pyrazol-1-yl)benzamide]
5.03 nM	0.653%	≥ 20000 nM	CN1CCC(S(=O)(=O)c2ccc3nc(NC(=O)NC(=O)c4cc(-n5cccn5)c(Cl)cc4Cl)sc3c2)CC1 [Example 259, 2,4-dichloro-N-(6-(1-methylpiperidin-4-ylsulfonyl)benzo [d]thiazol-2-ylcarbamoyl)-5-(1H-pyrazol-1-yl)benzamide]
0.5 nM	0.5%	4820 nM	Cc1ccn(-c2ccc(Cl)c(C(=O)NC(=O)Nc3nc4ccc(S(=O)(=O)CCCN5CCN(C)CC5)cc4s3)c2)n1 [Example 91, 2-Chloro-5-(3-methyl-1H-pyrazol-1-yl)-N-(6-(3-(4-methylpiperazin-1-yl)propylsulfonyl)benzothiazol-2-ylcarbamoyl)benzamide]
